Assay results taken from patent US8703812B2, “Protein synthesis required for long-term memory is induced by PKC activation on days preceding associative learning” (Blanchette Rockefeller Neurosciences Institute, priority 2005, dated 2014).

Legend:
PKC = assay: Protein kinase C assay (histone phosphorylation) in Hermissenda nervous systems; format: in vivo
Method: Bryostatin exposure—Specimens of Hermissenda Crassicornis were maintained in artificial sea water (ASW) at 15° for three days in perforated 50-ml conical centrifuge tubes before starting experiments. Bryostatin, purified from the marine bryozoan Bugula neritina, was dissolved in EtOH and diluted to its final concentration in ASW. Animals were incubated with bryostatin in ASW for 4 hr, then rinsed with normal ASW. For selected experiments lactacysteine (10 μM) or anisomycin was added to the ASW.
Cells were homogenized by sonication (5 sec, 25 W) in 100 μl of 10 mM Tris-HCl pH 7.4 buffer containing 1 mM EGTA, 1 mM PMSF, and 50 mM NaF. Homogenate was transferred to a polyallomer centrifuge tube and was centrifuged at 100,000×g for 10 min at 4°. The supernatant was removed and immediately frozen on dry ice. The particulate fraction was resuspended by sonication in 100 μl of the same buffer and stored at −80°. To measure PKC, 10 μl of cytosol or particulate fraction was incubated for 15 min at 37° in the presence of 10 μM histones, 4.89 mM CaCl2, 1.2 μg/μl phosphatidyl-L-serine, 0.18 μg/μl 1,2-dioctanoyl-sn-glycerol, 10 mM MgCl2, 20 mM HEPES (pH 7.4), 0-8 mM EDTA, 4 mM EGTA, 4% glycerol, 8 μg/ml aprotinin, 8 μg/ml leupeptin, and 2 mM benzamidine. 0.5 μCi [γ^32P]ATP was added and ^32P-phosphoprotein formation was measured by adsorption onto phosphocellulose as described previously (25). This assay was used with slight adjustments for either Hermissenda nervous system homogenates or cultured mammalian neuron homogenates
Intact Hermissenda were exposed for 4 hour intervals to bryostatin (0.28 nM) on successive days under conditions described (“Behavioral Pharmacology”). Histone phosphorylation (See “Methods”) in isolated circumesophageal nervous systems was then measured in the cytosol fraction. […] (FIG. 12, 13). […] After an initial activation (via translocation), this bryostatin effect is most likely due to increased synthesis of PKC, consistent with the increased levels of calexcitin induced by bryostatin, but not directly correlated with repeated bryostatin exposure.

[1] = system: Rat hippocampal H19-7/IGF-IR cells; assay: Protein synthesis by [35S]Methionine incorporation; format: cell-based; settings: single 30-minute exposure to 0.28 nM bryostatin
Method: FIG. 17 depicts the effects of bryostatin on protein synthesis. Rat IGF-IR cells were incubated for 30 minutes with 0.28 nM bryostatin for incubation times ranging from 1 to 79 hours. [^35S]Methionine (9.1 μCi) was then added to the medium followed by analysis of radiolabel.
Rat hippocampal H19-7/IGF-IR cells (ATCC) were plated onto poly-L-lysine coated plates and grown at 35° in DMEM/10% FCS for several days until approx. 50% coverage was obtained. The cells were then induced to differentiate into a neuronal phenotype by replacing the medium with 5 ml N2 medium containing 10 ng/ml basic fibroblast growth factor and grown in T-25 flasks at 39° C. (26). Various concentrations of bryostatin (0.01-1.0 nM) were then added in 10 μl aqueous solution. After a specified interval, the medium was removed and the cells were washed with PBS, removed by gentle scraping, and collected by centrifugation at 1000 rpm for 5 min.
In fact, we found here that a single 30-minute exposure to 0.28 nM bryostatin increased overall protein synthesis (FIG. 17), measured by incorporation of ^35-S Methionine in the last ½ hour before collecting the neurons, by 20% within 24 h, increasing to 60% by 79 hours after the bryostatin exposure.

CCC/C=C/C=C/C(=O)O[C@H]1/C(=C/C(=O)OC)C[C@H]2C[C@H]([C@@H](C)O)OC(=O)C[C@H](O)C[C@@H]3C[C@H](OC(C)=O)C(C)(C)[C@](O)(C[C@@H]4C/C(=C/C(=O)OC)C[C@H](/C=C/C(C)(C)[C@]1(O)O2)O4)O3 [bryostatin, bryostatin-1]
PKC activity, membrane fraction (PKC; 24 hours after the second of two bryostatin exposures): significantly increased over baseline | PKC activity, cytosol fraction (PKC; bryostatin 0.28 nM 4 hour on successive days, 10 minutes and 24 hours after second of two exposures): significantly increased over baseline levels | increase of overall protein synthesis ([1]; by 79 hours): 60% | increase of overall protein synthesis ([1]; within 24 h): 20%
